These results are taken from ChEMBL document CHEMBL4342421, “Current scenario of tetrazole hybrids for antibacterial activity” (Eur J Med Chem, 2019).

Converted amounts (≈) assume the structure as drawn.

One may read the MIC as the least concentration at which growth counts as inhibited. Read a high MIC as a need for much substance. A word on the AUC: it is the area under the concentration-time curve, a measure of exposure. Read a high AUC as more exposure. By clearance is commonly meant a measure of how efficiently the substance is removed, as volume per time.

Data set [1] relates to Escherichia coli. As to the kind of experiment: Antimicrobial activity against Escherichia coli. It is filed as functional.
Data set [2] deals with Bacillus subtilis. Kind of data set: Antimicrobial activity against Bacillus subtilis. It is filed as functional.
In data set [3] the test system is Bacillus subtilis. As to the kind of experiment: Potency index, ratio of ciprofloxacin MIC to test compound MIC for antimicrobial activity against Bacillus subtilis. The format is functional.
Data set [4] deals with Escherichia coli. As to the kind of experiment: Potency index, ratio of ciprofloxacin MIC to test compound MIC for antimicrobial activity against Escherichia coli. The format is functional.
Data set [5] concerns Pseudomonas aeruginosa. Kind of data set: Antimicrobial activity against Pseudomonas aeruginosa. It is filed as functional.
Data set [6] has as its system Staphylococcus aureus. Kind of data set: Antimicrobial activity against Staphylococcus aureus. It is filed as functional.
Data set [7] relates to Candida albicans. As to the kind of experiment: Antifungal activity against Candida albicans. The format is functional.
Another data set relates to Nakaseomyces glabratus. As to the kind of experiment: Antifungal activity against Candida glabrata. It is filed as functional.
For a further data set, the system named is Candida tropicalis. As to the kind of experiment: Antifungal activity against Candida tropicalis. It is filed as functional.
Another data set has as its system Pichia kudriavzevii. Kind of data set: Antifungal activity against Candida krusei.
In data set [8] the test system is Bacillus cereus. Kind of data set: Antimicrobial activity against Bacillus cereus. It is filed as functional.
In data set [9] the test system is Talaromyces purpureogenus. Kind of data set: Antifungal activity against Penicillium purpurogenum. It is filed as functional.
Another data set deals with Aspergillus flavus. As to the kind of experiment: Antifungal activity against Aspergillus flavus. It is filed as functional.
The next data set deals with Trichothecium roseum. Kind of data set: Antifungal activity against Trichothecium roseum. The format is functional.
Data set [10] deals with Aspergillus niger. Kind of data set: Antifungal activity against Aspergillus niger. The format is functional.
For data set [11], the system named is Proteus mirabilis. Kind of data set: Antimicrobial activity against Proteus mirabilis. It is filed as functional.
The subject of data set [12] is Staphylococcus epidermidis. As to the kind of experiment: Antimicrobial activity against Staphylococcus epidermidis. It is filed as functional.
Data set [13] relates to Staphylococcus aureus. Kind of data set: Antimicrobial activity against Staphylococcus aureus assessed as zone of inhibition at 250 ug/ml. It is filed as functional. The conditions noted are these: read-out: IZ.
In data set [14] the test system is Bacillus cereus. Kind of data set: Antimicrobial activity against Bacillus cereus assessed as zone of inhibition at 250 ug/ml. It is filed as functional. The conditions noted are these: read-out: IZ.
In data set [15] the test system is Escherichia coli. As to the kind of experiment: Antimicrobial activity against Escherichia coli assessed as zone of inhibition at 250 ug/ml. The conditions noted are these: read-out: IZ. It is filed as functional.
Data set [16] relates to Pseudomonas aeruginosa. Kind of data set: Antimicrobial activity against Pseudomonas aeruginosa assessed as zone of inhibition at 250 ug/ml. The format is functional. The following applies: read-out: IZ.
Data set [17] relates to Candida albicans. Kind of data set: Antifungal activity against Candida albicans assessed as zone of inhibition at 250 ug/ml. The format is functional. The conditions noted are these: read-out: IZ.
Data set [18] has as its system Aspergillus niger. Kind of data set: Antifungal activity against Aspergillus niger assessed as zone of inhibition at 250 ug/ml. The format is functional. The following applies: read-out: IZ.
The test system of data set [19] is Escherichia coli. As to the kind of experiment: Antimicrobial activity against Escherichia coli assessed as zone of inhibition at 30 ug/ml. It is filed as functional. The following applies: read-out: IZ.
Data set [20] concerns Staphylococcus aureus. Kind of data set: Antimicrobial activity against Staphylococcus aureus assessed as zone of inhibition at 30 ug/ml. The format is functional. The conditions noted are these: read-out: IZ.
In data set [21] the test system is Candida albicans. As to the kind of experiment: Antifungal activity against Candida albicans assessed as zone of inhibition at 30 ug/ml. The format is functional. The following applies: read-out: IZ.
The test system of data set [22] is Pseudomonas aeruginosa. Kind of data set: Antimicrobial activity against Pseudomonas aeruginosa assessed as zone of inhibition at 30 ug/ml. It is filed as functional. The following applies: read-out: IZ.
Data set [23] relates to Bacillus subtilis. Kind of data set: Antimicrobial activity against Bacillus subtilis assessed as zone of inhibition at 30 ug/ml. The format is functional. The following applies: read-out: IZ.
A further data set deals with Aspergillus fumigatus. Kind of data set: Antifungal activity against Aspergillus fumigatus assessed as zone of inhibition at 30 ug/ml. The format is functional. The conditions noted are these: read-out: IZ.
Data set [24] has as its system Escherichia coli. As to the kind of experiment: Antimicrobial activity against Escherichia coli assessed as zone of inhibition at 250 ug/ml after 24 hrs by disk diffusion method. The format is functional. The following applies: read-out: IZ. Background: In agar diffusion tests the substance spreads into inoculated agar from a disc or well.
Data set [25] has as its system Escherichia coli. Kind of data set: Antimicrobial activity against Escherichia coli after 24 hrs by agar disk diffusion method. It is filed as functional.
The subject of data set [26] is Pseudomonas aeruginosa. As to the kind of experiment: Antimicrobial activity against Pseudomonas aeruginosa after 24 hrs by agar disk diffusion method. It is filed as functional.
Data set [27] deals with Klebsiella pneumoniae. As to the kind of experiment: Antimicrobial activity against Klebsiella pneumoniae after 24 hrs by agar disk diffusion method. It is filed as functional.
In data set [28] the test system is Proteus mirabilis. Kind of data set: Antimicrobial activity against Proteus mirabilis after 24 hrs by agar disk diffusion method. The format is functional.
The test system of data set [29] is Staphylococcus aureus. As to the kind of experiment: Antimicrobial activity against Staphylococcus aureus ATCC 25923 assessed as zone of inhibition at 100 ug/ml after 24 hrs by disc diffusion method. The format is functional. The following applies: ATCC 25923, 24 h, read-out: IZ.
Data set [30] has as its system Klebsiella pneumoniae. As to the kind of experiment: Antimicrobial activity against Klebsiella pneumoniae ATCC 700603 assessed as zone of inhibition at 100 ug/ml after 24 hrs by disc diffusion method. The format is functional. The following applies: ATCC 700603, 24 h, read-out: IZ.
Data set [31] in a line: Half life in rat. It is filed as ADME. The conditions noted are these: in vivo.
Data set [32] can be described thus: AUC in rat. The format is ADME. The following applies: in vivo.
Data set [33] is described as follows: Clearance in rat. The format is ADME. The conditions noted are these: in vivo.

`COc1cccc(OC)c1/C=C1\SC(=O)N(Cc2ccc(-c3ccccc3-c3nnn[nH]3)cc2)C1=O`: the results for the MIC with Escherichia coli [1] and against Bacillus subtilis [2] were 8.58 µg/mL (≈ 17.2 µM) and 8.41 µg/mL (≈ 16.8 µM), respectively. In addition, the Ratio in the data set on Bacillus subtilis [3] and with Escherichia coli [4] was over 2.91 each time.

For the compound `COc1ccc(/C=C2\SC(=O)N(Cc3ccc(-c4ccccc4-c4nnn[nH]4)cc3)C2=O)cc1`, the MIC with Escherichia coli [1] was determined as 7.7 µg/mL (≈ 16.4 µM); in the data set on Bacillus subtilis [2], 8.33 µg/mL (≈ 17.7 µM). The Ratio in the data set with Bacillus subtilis [3] and in the data set with Escherichia coli [4] was over 2.91 in each case.

Regarding `Fc1cc2nc(SCc3ccc(-c4ccccc4-c4nnnn4C(c4ccccc4)(c4ccccc4)c4ccccc4)cc3)[nH]c2cc1-n1ccnc1`, the MIC in the data set with Escherichia coli [1], against Pseudomonas aeruginosa [5], against Staphylococcus aureus [6], against Bacillus subtilis [2], with Candida albicans [7] and in the data set on Nakaseomyces glabratus was 16 to 64 µg/mL (≈ 22.5 to 90 µM) in each case. Also, the minimum inhibitory concentration (MIC) against Candida tropicalis and in the data set on Pichia kudriavzevii was 16 to 64 µg/mL (≈ 22.5 to 90 µM) in each case.

Consider `N=C(N)Nc1nnn(Cc2cccc(Cn3nnc(C(=N)N)n3)c2)n1`, for which the MIC (in the data set with Escherichia coli [1]; with Pseudomonas aeruginosa [5]; against Bacillus cereus [8]; against Bacillus subtilis [2]; in data set [9]; against Aspergillus flavus) was 30 to 40 µg/mL (≈ 87.9 to 117 µM) in each case. Moreover, in the data set on Trichothecium roseum, the MIC lay in the range of 30 to 40 µg/mL (≈ 87.9 to 117 µM).

On to `COc1ccc(C2=NN(C(N)=S)C(c3cc4ccc(C)cc4n4nnnc34)C2)cc1` (stereo not given), for which the MIC against Escherichia coli [1], in the data set on Pseudomonas aeruginosa [5], in the data set on Staphylococcus aureus [6], against Candida albicans [7], with Aspergillus niger [10] and against Proteus mirabilis [11] was 3.12 to 25 µg/mL (≈ 7.49 to 59.9 µM) in each case. In data set [12], this compound returned an MIC of 3.12 to 25 µg/mL (≈ 7.49 to 59.9 µM).

As to `N=C(N)Nc1nnn(Cc2ccccc2Cn2nnc(C(=N)N)n2)n1`, the MIC (in the data set on Escherichia coli [1]; in the data set on Pseudomonas aeruginosa [5]; in the data set on Bacillus cereus [8]; against Bacillus subtilis [2]; in [9]; against Aspergillus flavus) was 30 to 40 µg/mL (≈ 87.9 to 117 µM) throughout. In the data set with Trichothecium roseum, this compound displayed an MIC of 30 to 40 µg/mL (≈ 87.9 to 117 µM).

Turning to `CC1(C)S[C@@H]2[C@H](NC(=O)[C@H](N)c3ccc(O)cc3)C(=O)N2[C@H]1C(=O)O` [AMOXICILLIN], the zone of inhibition at 250 µg/mL in the data set with Staphylococcus aureus [13], in the data set with Bacillus cereus [14], in the data set with Escherichia coli [15], in the data set on Pseudomonas aeruginosa [16], in the data set with Candida albicans [17] and in the data set on Aspergillus niger [18] was 21 to 27 mm each time. Also, the zone of inhibition at 250 µg/mL in the data set with Escherichia coli [24] lay within 21 to 27 mm. The zone of inhibition at 30 µg/mL with Escherichia coli [19], in the data set on Staphylococcus aureus [20], in the data set on Candida albicans [21], in the data set with Pseudomonas aeruginosa [22], with Bacillus subtilis [23] and in the data set on Aspergillus fumigatus was 25 to 28 mm throughout.

Regarding `CC1(C)S[C@@H]2[C@H](NC(=O)[C@H](N)c3ccccc3)C(=O)N2[C@H]1C(=O)O` [AMPICILLIN], the MIC is 2 to 250 µg/mL (≈ 5.72 to 715 µM) against Escherichia coli [1]; 2 to 250 µg/mL (≈ 5.72 to 715 µM) with Pseudomonas aeruginosa [5]; 2 to 250 µg/mL (≈ 5.72 to 715 µM) against Staphylococcus aureus [6]; 6.25 µg/mL (≈ 17.9 µM) in the data set on Escherichia coli [25]; 6.25 µg/mL (≈ 17.9 µM) in the data set with Pseudomonas aeruginosa [26]; 6.25 µg/mL (≈ 17.9 µM) against Klebsiella pneumoniae [27]. Besides, the MIC against Proteus mirabilis [28] was 6.25 µg/mL (≈ 17.9 µM); against Bacillus cereus [8], 6.25 µg/mL (≈ 17.9 µM); against Bacillus subtilis [2], 2 to 64 µg/mL (≈ 5.72 to 183 µM); against Candida albicans [7], 2 to 250 µg/mL (≈ 5.72 to 715 µM); against Nakaseomyces glabratus it was 2 to 64 µg/mL (≈ 5.72 to 183 µM); with Candida tropicalis, 2 to 64 µg/mL (≈ 5.72 to 183 µM). Also, the MIC was in the range of 100 to 250 µg/mL (≈ 286 to 715 µM) with Aspergillus niger [10] and 2 to 64 µg/mL (≈ 5.72 to 183 µM) against Pichia kudriavzevii. Also, the zone of inhibition at 100 µg/mL in the data set with Staphylococcus aureus [29] turned out to be 16.5 mm; in the data set with Klebsiella pneumoniae [30], 15 mm.

`C[C@@H](O)[C@H]1C(=O)N2C(C(=O)O)=C(SCCN=CN)C[C@H]12` [IMIPENEM ANHYDROUS]: in data set [31], the t1/2 came out at 3.46 h. Further, the AUC in data set [32] is 5500 ng·h/mL.

The compound `C[C@@H](O)[C@H]1C(=O)N2C(C(=O)O)=C(S[C@@H]3CN[C@H](C(=O)N(C)C)C3)[C@H](C)[C@H]12` [MEROPENEM] displayed a t1/2 in data set [31] of 3.99 h. The compound further came in with a clearance in data set [33] of 51.2 mL/min/kg.
